Data: patent US9999617B2, “Compositions for treating bacterial infections” (TRUSTEES OF DARTMOUTH COLLEGE, priority 2009, dated 2018)
In brackets after ≈: the same amount, converted by molar mass. Read-outs that look alike come from different tables or passages of the source.

Test system: S. aureus
Experiment: Minimum Inhibitory Concentration (MIC), inhibition of growth of S. aureus in vitro
Type: cell-based
Settings: Staphylococcus aureus
Procedure: Once the compounds of the present invention were identified through the MazEF screening assay described above, the activity of the compounds to inhibit growth of S. aureus in vitro was tested using the standard method of determining Minimum Inhibitory Concentrations (MICs). Such methods are well known to those of skill in the art since determining MIC doses is a standard assay in development of antibiotic drugs. For example, MIC values can be determined according to the Clinical and Laboratory Standards Institute guidelines. In Table 1, the MIC values are presented for each of the ten compounds identified through the MazEF screening assay as having potential for antibiotic activity in S. aureus.

[1] = S. aureus growth in vitro, read-out: MIC

SMILES	MIC [1] [µg/mL]	MIC [µg/mL]
COc1cc(/C=C2/S/C(=N\S(=O)(=O)c3ccccc3)NC2=O)ccc1O [Compound 7]	100 (≈ 256 µM)	–
CN1C(=O)/C(=C/c2cc(Br)cc([N+](=O)[O-])c2O)SC1=S [Compound 2]	12.5 (≈ 33.3 µM)	–
COc1ccc(/C=C2\SC(=O)NC2=S)cc1 [Compound 6]	0.78 (≈ 3.1 µM)	–
O=C1c2ccccc2-c2onc3ccc(Cl)c1c23 [Compound 5]	–	6.25 (≈ 24.4 µM)
CCN1CCc2c(sc(NC(=O)Nc3ccc(Cl)cc3)c2C(N)=O)C1 [Compound 9]	100 (≈ 264 µM)	–
Cc1ccc(Nc2nc3nonc3nc2N)c(C)c1 [Compound 4]	–	12.5 (≈ 48.8 µM)
